Data taken from patent publication US20230285346A1, “METHODS OF USING FTO INHIBITORS FOR THE TREATMENT OF PULMONARY HYPERTENSION” (Ann and Robert H. Lurie Children's Hospital of Chicago, priority 2022, published 2023).

How the values were obtained:
MCT-induced PH in rats = experiment: monocrotaline (MCT)-induced rat PH model; type: in vivo, Sprague Dawley (SD) rats
Protocol: FIGS. 15A, 15B, 15C, 15D, and 15E. […] (A) FB-23-2 chemical structure. (B) Hemodynamic measurement showing decreased RVSP in FB23-2-treated MCT rats. (C) FB23-2 treatment attenuated RV hypertrophy. (D) Representative micrographs of pentachrome staining showing a markedly thickened vessel in Vehicle-treated MCT rats whereas normalized thickness of vessel walls in FB23-2-treated rats. At 2 weeks post-MCT challenge, the rats were treated with either PBS or FB23-2 (3 mg/kg, i.p. twice a day) for 2 weeks. V=vessel, Br=Bronchiole. Scale bar, 20 μm. […] Student's t test.
FIGS. 17A, 17B, and 17C. Decreased RVSP and RV hypertrophy in Meclofenamate-treated MCT rats. (A) representative tracings of RVSP measurement. Mec=Meclofenamate. […] (C) Reduced RV hypertrophy in Meclofenamate-treated MCT rats. CTL, control rats without MCT treatment. *P<0.05; **P<0.01. One-way ANOVA.
FIGS. 18A and 18B. Inhibited pulmonary vascular remodeling in Meclofenamate-treated MCT rats. (A) Representative micrographs of pentachrome staining showing a markedly thickened vessel in PBS-treated MCT rats whereas normalized thickness of vessel walls in Meclofenamate-treated rats. At 2 weeks post-MCT challenge, the rats were treated with either PBS or Meclofenamate for 2 weeks. V=vessel, Br=Bronchiole. Scale bar, 20 μm. (B). Quantification of pulmonary artery (PA) wall thickness. CTL=control rats without MCT treatment. *P<0.05. One-way ANOVA.
FIGS. 19A and 19B. Improved right heart contractility and pulmonary arterial function in Meclofenamate-treated MCT rats. At 2 weeks post-MCT, the rats were treated with either PBS or Meclofenamate for 2 weeks and then subject to echocardiography for assessment of right heart contractility determined by RV fraction area changes (RV FAC) (A), and of pulmonary arterial function by PA acceleration time/ejection time ratio (PA AT/ET) (B). ** P<0.01. Student t test.
Inhibited Arginase expression in lung ECs of Fto^Tie2Cre mice following chronic hypoxia. To identify potential FTO targets in lung ECs, RNA was isolated from lung ECs of WT mice and Fto^Tie2Cre mice at normoxia, 3 days, and 21 days hypoxia for RNA sequencing analysis. Arg1 is one of the top 10 genes induced in hypoxic WT mice but not in hypoxic Fto^Tie2Cre mice. […] It has been shown that substrate L-Arginine levels inversely correlate to PA pressure in patients (19). […] Increased Arginase expression and activity in lung ECs leads to reduced substrate L-Arginine for nitric oxide (NO) synthesis by eNOS and thus impairs NO production (21, 22). Low NO levels affect vasotone and smooth muscle cell growth. […] FTO deficiency reduces the stability of ARG2 mRNA in human PAECs. To determine whether ARG2 (the major isoform in human ECs) is a target of FTO in human PAECs, a stability assay was carried out and the effect of FTO on the decay of ARG2 mRNA was assessed. FTO-silenced and control PAECs were treated with 5 μg/mL actinomycin D to stop the new transcriptional process. Total RNA was then isolated at 0, 3, 6 h post-actinomycin D treatment and quantified by QRT-PCR analysis. The relative ARG2 level was calculated and normalized to β-actin and the ARG2 mRNA half-life time (t1/2) was estimated according to the linear regression analysis (9). […] Increased m^6A demethylase activity and FTO expression in PAECs from IPAH patients compared to donor ECs and FTO-dependent upregulation of ARG2 expression in PAECs of IPAH patients. […] Furthermore, methylated RNA immunoprecipitation (MeRIP)-QRT-PCR analysis confirmed a marked decrease of m^6A ARG2 in IPAH ECs compared to normal ECs from unused donors (FIG. 10). • 7. SMC-specific Fto deletion inhibits hypoxia-induced PH in mice. To determine whether FTO is essential for medial thickening and muscularization of distal pulmonary vessels and development of PAH, novel tamoxifen-inducible Fto^iΔSMC mice were generated by breeding Fto-floxed mice into the genetic background of Myh11-CreER^T2 mice. […]

FTO = FTO (Homo sapiens, UniProt Q9C0B1); settings: FTO versus ALKBH5; cited from earlier work
FTO, sequence (Q9C0B1 whole entry): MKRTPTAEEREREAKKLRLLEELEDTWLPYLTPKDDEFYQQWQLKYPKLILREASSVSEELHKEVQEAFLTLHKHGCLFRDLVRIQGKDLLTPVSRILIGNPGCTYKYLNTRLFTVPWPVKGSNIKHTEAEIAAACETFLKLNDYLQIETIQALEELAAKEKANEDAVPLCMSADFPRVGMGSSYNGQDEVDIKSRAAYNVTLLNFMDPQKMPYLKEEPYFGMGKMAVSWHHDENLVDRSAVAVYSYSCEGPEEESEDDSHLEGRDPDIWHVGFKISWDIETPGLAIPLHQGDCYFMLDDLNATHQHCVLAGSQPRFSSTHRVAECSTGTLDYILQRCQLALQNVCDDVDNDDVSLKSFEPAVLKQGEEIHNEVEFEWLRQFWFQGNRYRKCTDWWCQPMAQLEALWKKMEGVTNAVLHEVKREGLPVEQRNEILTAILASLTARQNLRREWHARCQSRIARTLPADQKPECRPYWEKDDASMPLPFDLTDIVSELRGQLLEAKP

[1] = FB23-2 3 mg/kg, i.p. twice a day for 2 weeks, vs vehicle-treated MCT rats

SMILES	RVSP (MCT-induced PH in rats; Meclofenamate 10 mg/kg, p.o., twice a day for 2 weeks from 2 weeks post-MCT, vs PBS-treated MCT rats)	MCT-induced RV hypertrophy (MCT-induced PH in rats; Meclofenamate 10 mg/kg, p.o., twice a day for 2 weeks, vs PBS-treated MCT rats)	PA wall thickness (pentachrome staining; pulmonary vascular remodeling) (MCT-induced PH in rats; Meclofenamate 10 mg/kg, p.o., twice a day for 2 weeks, vs untreated MCT-rats)	right heart contractility, RV fraction area changes (RV FAC), echocardiography (MCT-induced PH in rats; Meclofenamate for 2 weeks from 2 weeks post-MCT, decrease seen in PBS-treated MCT rats)	ratio of PA acceleration time/ejection time (PA AT/ET) (MCT-induced PH in rats; Meclofenamate for 2 weeks from 2 weeks post-MCT, vs PBS-treated MCT rats)	selectivity of FTO inhibition (FTO)	MCT-induced RVSP increase (MCT-induced PH in rats; FB23-2 3 mg/kg, i.p. twice a day for 2 weeks from 2 weeks post-MCT, measured 4 weeks post-MCT, vs vehicle)	RV hypertrophy determined by RV/LV+septum ratio (MCT-induced PH in rats; FB23-2 3 mg/kg, i.p. twice a day for 2 weeks from 2 weeks post-MCT, vs vehicle)	pulmonary arterial function (echocardiography, PA AT/ET) (MCT-induced PH in rats; [1])	pulmonary vascular remodeling (vessel wall thickness, pentachrome staining) (MCT-induced PH in rats; [1])
Cc1ccc(Cl)c(Nc2ccccc2C(=O)O)c1Cl [Meclofenamate sodium]	drastically decreased	markedly reduced	markedly reduced	reversed	marked increase	selective over ALKBH5	–	–	–	–
Cc1noc(C)c1-c1cc(Cl)c(Nc2ccccc2C(=O)NO)c(Cl)c1 [FB23-2]	–	–	–	–	–	–	markedly reduced	markedly reduced	improved pulmonary arterial function	reduced pulmonary vascular remodeling
